# What was measured:
# [1] = system: Kyn levels in BxPC3 cells (kynurenine generated by IDO1); assay: Cellular Kyn assay (automated Kyn screening assay); format: cell-based; conditions: Homo sapiens, BXPC-3, 48 h, IFN-γ, L-Trp and compounds 48 h, mean ± SD, read-out: IC50 (Kyn assay), reduction of kynurenine levels
# [2] = system: global proteome of SKOV-3 cells; assay: TMT-based global proteome profiling; format: cell-based; conditions: 10 µM vs DMSO, 4 h, LC-MS/MS
# Method: Figure 3 Comparison of IDO1 degradation efficiency for selected compounds. a) Detection of IDO1 levels using immunostaining. IFN‐γ stimulated HeLa cells were treated with the compounds for 24 h. IDO1 protein abundance was detected with IDO1 antibody. Data are mean values ± SD, n = 3. b) IDO1 protein levels in BxPC3 cells upon compounds treatment were detected using immunoblotting. BxPC3 cells were treated with IFN‐γ for 24 h prior to washout, followed by addition of compounds. Representative blot and quantified band intensities are shown (mean values ± SD, n = 3). See Figure S11a S12a for the uncropped blots. c) Key functions of hit compounds that influence degradation efficiency. d) Heatmap for IDO degradation efficiency. IDO1 levels were monitored as described in (c). See Table S1 for mean values and Figure S11b for the uncropped blots. e)–g) Dose dependent degradation of IDO1 protein in BxPC3 cells treated with iDeg‐7–9 and detected as described in (c). Representative data of n = 3 except for iDeg‐9 (n = 4). See Figure S12 S13 for the uncropped blots. h) Quantification of IDO1 protein levels from e‐g (mean values ± SD, n = 3 except for iDeg‐9 (n = 4). i) Tabulated inhibition and degradation ability of iDeg‐6–9. ND: not detected. j) Volcano plot of iDeg‐6‐induced changes on the global proteome. SKOV‐3 cells were treated with 10 µM iDeg‐6 or DMSO for 4 h followed by protein extraction, tryptic digest and LC‐MS/MS analysis (n = 4). Plot generated using UMSAP (T 0 = 0.5, S 0 = 0.5).
# Cells were collected after trypsinization. The collected cell suspension was centrifugated and washed twice by cold PBS before lysate preparation by means of four freeze-thaw cycles in PBS containing 0.4% NP-40 alternative with protease (Roche, #5892970001) and phosphatase inhibitors (Roche, #4906845001). Protein concentration was determined by DC protein assay (BIO-RAD, #5000116) and 200 μg of protein lysates were subjected to the sample preparation and MS analysis. Protein lysates were dissolved in equal volume of 100 mM triethylammonium bicarbonate (TEAB) buffer supplemented with 7.5 µL of a 200 mM Tris(2-carboxyethyl) phosphine (TCEP) followed by an incubation step at 55 °C for 1 h. Afterwards, 7.5 µL of 375 mM iodoacetamide were added and samples were incubated for another 30 min at room temperature in the dark prior to acetone-based protein precipitation (pre-incubation at -20 °C overnight). On the next day, samples were centrifuged at 8,000 x g and 4 °C, the supernatant was aspired and protein pellets were dried at room temperature. Pellets were dissolved in digestion buffer (trypsin: protein ratio-1:50 (w/w)), in which trypsin was pre-dissolved in 10 mM HCl, and then diluted in 100 mM TEAB buffer to a final concentration of 0.4 µg/µL trypsin in 10 mM HCl, then the sample was incubated with shaking overnight at 37 °C. On the next day, samples were labelled with TMT10plex reagents (Thermo Scientific, WL320956) following the instruction of the TMT10plex Mass Tag Labeling Kit. Namely, 20 µL of the TMTpro Label reagent was added to each 100 µL sample (100 µg protein) followed by incubation for 2 h at room temperature while shaking. Afterwards, 5 µL of 5% hydroxylamine was added into each sample, and the samples were incubated for 15 min to quench the reaction. Equal amounts of each sample were combined in a new tube. The pooled samples were dried in a SpeedVac at 30 °C until the liquid evaporated completely.
# All solvents used during MS measurements were LC-MS grade. The TMTpro labeled peptides were cleaned up and fractionated using a reversed-phase fractionation spin column (Thermo Fisher Scientific ^#84868) following the instructions of the Pierce™ High pH Reversed-Phase Peptide Fractionation kit. Briefly, the combined labeled samples (40 µg) were fully dissolved in 300 μL of 0.1% TFA and loaded onto an activated spin column, followed by centrifugation at 3000 g for 2 minutes. […]
# recombinant human IDO1 = target: T1, recombinant human IDO1 (Homo sapiens, UniProt P14902); assay: IDO1 enzymatic assay in vitro; format: biochemical; conditions: at 14 µM; pre-incubation 37 °C 45 min; mean ± SD
# T1 construct: The GST-tag of IDO1 was removed to obtain untagged full-length IDO1l using PreScission protease; GST (N, cleaved yes); made in house; own inference
# T1 sequence (P14902 whole entry): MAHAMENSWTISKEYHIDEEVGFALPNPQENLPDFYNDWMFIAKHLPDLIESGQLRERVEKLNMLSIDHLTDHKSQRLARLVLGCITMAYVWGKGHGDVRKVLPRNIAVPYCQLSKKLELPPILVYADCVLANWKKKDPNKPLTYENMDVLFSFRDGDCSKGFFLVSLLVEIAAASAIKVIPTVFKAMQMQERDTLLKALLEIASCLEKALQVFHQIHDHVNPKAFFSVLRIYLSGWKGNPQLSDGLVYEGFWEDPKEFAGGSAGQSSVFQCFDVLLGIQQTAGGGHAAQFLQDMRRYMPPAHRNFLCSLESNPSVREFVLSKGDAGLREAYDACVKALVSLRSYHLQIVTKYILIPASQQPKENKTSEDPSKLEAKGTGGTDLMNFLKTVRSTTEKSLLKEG
# [3] = system: IDO1 mRNA levels in SKOV-3 cells; assay: RT-qPCR of IDO1 expression; format: cell-based; conditions: 24 h
# Method: a, IDO1 mRNA levels in SKOV-3 cells.
# To assess IDO1 gene expression in the SKOV3 cell line, SKOV3 cells were seeded into 24-well plates. After 24 h, the cells were treated with the indicated concentrations of compounds, followed by an additional 24 h incubation.
# [4] = target: IDO1 protein levels in BxPC3 cells (Homo sapiens, UniProt P14902); assay: IDO1 immunoblotting (degradation); format: cell-based; design: endogenous in cells; host or cells: BxPC3 (DSMZ), IFN-γ stimulated; conditions: 24 h incubation, mean ± SD
# Chain of IDO1 protein levels in BxPC3 cells (P14902 whole entry): as above
smiles,measurement,setting,value
"C#Cc1ccc(NC(=O)OC[C@]23CN(S(=O)(=O)c4ccc(C(C)(C)C)cc4C)C[C@H]2C[C@H]2C[C@@H]3C2(C)C)cc1 [98 (iDeg-6), ((3aS,4R,6R,7aS)-2-((4-(tert-butyl)-2-methylphenyl)sulfonyl)-5,5-dimethyloctahydro-3aH-4,6-methanoisoindol-3a-yl)methyl (4-ethynylphenyl)carbamate]",IC50,[1],14 ± 3 nM
same,Difference in protein level: ATP6V0D1,[2],0.47
same,Difference in protein level: COX6C,[2],0.79
same,Difference in protein level: COX7A2,[2],0.74
same,Difference in protein level: COX7C,[2],0.6
same,Difference in protein level: ERLIN2,[2],0.69
same,Difference in protein level: IDO1,[2],-0.53
same,Difference in protein level: MT-CO2,[2],0.44
same,Difference in protein level: MT-ND2,[2],0.52
same,Difference in protein level: NDUFA3,[2],0.44
same,Difference in protein level: NDUFA9,[2],0.58
same,Difference in protein level: NDUFB3,[2],0.53
same,Difference in protein level: NDUFB11,[2],0.51
same,Difference in protein level: NDUFC2,[2],0.57
same,Difference in protein level: NDUFS5,[2],0.51
same,Difference in protein level: PHB,[2],0.45
same,Difference in protein level: PHB2,[2],0.54
same,Difference in protein level: TCIRG1,[2],0.37
same,Difference in protein level: TOMM5,[2],0.56
same,Difference in protein level: TOMM22,[2],0.6
same,Difference in protein level: TOMM40,[2],0.45
same,Difference in protein level: UQCRB,[2],0.52
same,Difference in protein level: VDAC3,[2],0.52
same,inhibition at 14 µM,recombinant human IDO1,40 ± 7%
same,IDO1 transcription (in words),[3],without affecting its transcription
same,Max. degradation (%),[4]; 10 nM,61 ± 12 (5) %
same,Max. degradation (%),[4]; 100 nM,74 ± 13 (5) %

# From article PMC12811658, “Design, Synthesis, and Structural Evolution of Pseudo‐Natural Product IDO1 Inhibitors and Degraders” (Angewandte Chemie (International Ed. in English), 2025)
